Measurements: patent US9345700B2, “Compositions and methods useful for treating diseases” (Eutropics Pharmaceuticals, Inc., priority 2011, dated 2016)
“Also recorded” adds a separate entry of the source.

Assays:
SUDHL-10 = assay: In situ mitochondrial cytochrome c release assay, semi-permeabilized SUDHL-10; type: cell-based, human; conditions: 20 uM; BAX/BAK-deficient cell line
From the text: (§1) The on-target activity of compound II-19 was validated. Changes in mitochondrial integrity were observed utilizing anti-cytochrome c conjugated to Alexa488 (BD). When the mitochondria are intact, they retain cytochrome c and have bright, punctate staining with the antibody whereas cells with compromised mitochondrial integrity will lose cytochrome c and will not stain with the antibody. This can be observed by microscopy as well as measured by a shift in fluorescence on the FL1 channel of a flow cytometer.
(§2) The selective response of mitochondria in semi-permeabilized cell lines to the compounds was observed. The assay was adapted from (Campos et al. (2006) Cytometry Part A. 69 (A):515-523).
(§3) Suspension cell lines SUDHL10 and SUDHL6 were grown in RPMI, washed once in 1×PBS and re-suspended at a concentration of 2e6/ml in assay buffer with 0.0025% Digitonin. Assay buffer; 300 mM Trehalose, 10 mM HEPES-KOH pH 7.7, 80 mM KCl, 1 mM EGTA, 1 mM EDTA, 0.1% BSA, 5 mM Succinate. Cells are incubated with test and control compounds at 10^6 cells/treatment for 1 hour at room temperature. Samples are fixed with 4% formaldehyde in PBS for 20 minutes, washed once in PBS, and blocked with 2% FBS/0.5% TritonX-100 in PBS. Samples are re-suspended in blocking buffer with 1:250 anti-cytochrome c conjugated to Alexa488 (BD Cat#56028) for 1 hour at 4° C., washed once with blocking buffer and re-suspended in 200 ul PBS. Cytochrome c loss was measured by microscopy. At least 100 cells per treatment were counted and scored as positive for cytochrome c loss if they lacked staining. In both methods DMSO was calculated as 0% cytochrome c loss and the Bim response for DHL6 was used to determine 100% cytochrome c loss.

SUDHL-6 = assay: In situ mitochondrial cytochrome c release assay, semi-permeabilized SUDHL-6; type: cell-based, human; conditions: 20 uM; BAX/BAK-functional cell line
From the text: as §1, §2, §3

[1] = system: mitochondria from NCI 929; assay: BH3 profiling of mitochondria isolated from NCI 929; type: cell-based; conditions: isolated mitochondria of NCI 929
From the text: As another test of the ability of BH3 profiling to detect in vivo Mcl-1 dependence, the cancer cell line NCI 929 (obtained from ATCC) is examined. Mitochondria are isolated from this cell line and exposed to the panel of BH3 peptides in Table 1 and to compounds of Formula I or Formula II. MOMP is quantitated by JC-1 fluorescence and cytochrome c release is quantitated by ELISA as described in Examples 4 and 5. NCI 929 cells are sensitive to treatment with compounds of Formula I or Formula II in vitro. […] On the other hand, treatment of the mitochondria with compounds of Formula I or Formula II induces MOMP as measured by a decrease in the red JC-1 aggregate fluorescence and as measured by an increase in cytochrome c release. This provides support that compounds of formula identified Formula I or Formula II can substitute for Noxa in the mitochondrial BH3 profiling assay and that the mitochondrial response to these compounds is a powerful predictor of what cells are sensitive to Mcl-1 inhibiting drugs in vitro and in vivo.

Compound | release of cytochrome c in SUDHL-10 (SUDHL-10) | release of cytochrome c in SUDHL-6 (SUDHL-6) | mitochondrial response to BH3 peptide [1]
O=C(Nc1cccnc1)c1cc(-c2ccco2)nc2ccc(-c3ccc4scnc4c3)cc12 [Compound 18, 6-(benzo[d]thiazol-5-yl)-2-(furan-2-yl)-N-(pyridin-3-yl)quinoline-4-carboxamide] | lack of activity and not | activity; also recorded: cause release of cytochrome c | –
O=C(Nc1ccccc1)c1cc(-c2ccco2)nc2ccc(-c3ccc4scnc4c3)cc12 [Compound 33, 6-(benzo[d]thiazol-5-yl)-2-(furan-2-yl)-N-phenylquinoline-4-carboxamide] | lack of activity and not | activity; also recorded: cause release of cytochrome c | –
O=C(Nc1cccnc1)c1cc(-c2cnn(C3CCCCO3)c2)nc2ccc(-c3ccccc3)cc12 (stereo not drawn) [Compound 37, 6-phenyl-N-(pyridin-3-yl)-2-(1-(tetrahydro-2H-pyran-2-yl)-1H-pyrazol-4-yl)quinoline-4-carboxamide] | lack of activity and not | activity; also recorded: cause release of cytochrome c | –
O=C(Nc1cccnc1)c1cc(-c2cn[nH]c2)nc2ccc(-c3ccccc3)cc12 [Compound 38, 6-phenyl-2-(1H-pyrazol-4-yl)-N-(pyridin-3-yl)quinoline-4-carboxamide] | lack of activity and not | activity; also recorded: cause release of cytochrome c | –
Bad: Bcl-xL reactive BH3 domain peptide Bad from the Table 1 panel (LWAAQRYGRELRRMSDEFEGSFKGL) | – | – | lacking a response
